Data as given in a melting point compilation (Tetko et al.; mined from patent text by program, amines drawn as free bases though some values may be those of a salt).
Residues, ends and D or L forms follow the SMILES beside them. *: point of attachment. Propionyl = CCC(=O)*; NHPh = c1ccc(N*)cc1

Row | Compound | melting point
1 | Cc1cccc(-c2nc3cccnn3c2-c2ccnc(NC(=O)N3CCCCC3)c2)c1 | 173 to 175 °C
2 | CC1(CN2CCC(S(=O)c3ccc(OC(F)(F)F)cc3)CC2)Cn2cc([N+](=O)[O-])nc2O1 (configuration not stated) | 107 to 109 °C
3 | N#Cc1cc(-c2ccc(Cl)cc2)c(Br)[nH]1 | 202 to 204 °C
4 | O=S(=O)(c1ccc(Oc2ccccc2)cc1)N1CC1 | 136 to 138 °C
5 | OCc1cc(I)cc(I)c1 | 136 to 140 °C
6 | O=c1[nH]cnc2oc(-c3ccccc3)cc12 | 320 to 322 °C
7 | CN1CCc2c(c3ccccc3n2CCC(N)=S)C1 | 149 to 151 °C
8 | CCS(=O)(=O)Nc1cc(-c2nsc(C(F)(F)F)c2Cl)c(Cl)cc1Cl | 135 °C
9 | C=CCP(=O)(c1ccccc1)c1ccccc1 | 94 to 96 °C
10 | CN(C)Cc1ccc(CSCCNC2=NS(=O)N=C2N)o1 (configuration not stated) | 139 to 142 °C
11 | CC(C)N1CCC(N2CCN(CCCN3CCOCC3)C2=C(C#N)C#N)CC1 | 109 to 110 °C
12 | CCCCC1CCCC2=C1C(=O)c1ccccc1C2=O (configuration not stated) | 64 to 65 °C
13 | CC(C)OCC1(C(C)(F)F)c2cc(Cl)ccc2Nc2ncccc21 (configuration not stated) | 148 to 149 °C
14 | CC(C)Oc1cc(NNC(=N)C(F)(F)F)c(Cl)cc1Cl | 80.5 to 81 °C
15 | Cc1cc(-c2ccc(S(N)(=O)=O)cc2)n(-c2ccc(SSc3ccc(-n4cc(C)cc4-c4ccc(S(N)(=O)=O)cc4)cc3)cc2)c1 | 251 to 255 °C
16 | Nc1c(-c2ccc(-c3ccc(F)cc3F)cc2)nc2ccccc2c1C(=O)O | 244 to 247 °C
17 | N#CN=C(Nc1cccnc1)NC1CC1 | 171 to 172 °C
18 | CCC1CN(c2nc(C)nc(NC)n2)c2ccccc21 (configuration not stated) | 168 to 170 °C
19 | Nc1c(Oc2ccc(F)c(C(F)(F)F)c2)nc(Br)nc1Oc1ccc(F)c(C(F)(F)F)c1 | 184 to 186 °C
20 | COC(=O)c1ccc(N2CCNCC2)cc1 | 95 to 97 °C

Row | Compound | melting point
21 | CN(C)Cc1ncccc1OC1SCC(O)C(O)C1O (configuration not stated) | 79 °C
22 | Cc1[nH]c2ccccc2c1CCC(=O)N1CCC(O)(Cc2ccccc2)CC1 | 117 to 119 °C
23 | CC1CC(=O)N(c2ccc(F)cc2)C(=S)C1 (configuration not stated) | 84.5 to 87.5 °C
24 | CC1C(c2ccc([N+](=O)[O-])cc2)CC(=O)N1C (configuration not stated) | 94 to 95 °C
25 | O=C(CC(=O)c1snc(Cl)c1Cl)c1ccc(O)cc1 | 224 to 227 °C
26 | O=[N+]([O-])c1nccn1C1OC(CO)C(O)C1O (configuration not stated) | 160 °C
27 | O=C1C=CC2=CN=C(C3CCCCC3)N3CCC(=C23)N1 | 265 to 266 °C
28 | CN(C)CCOc1ccc(-c2cccc(N)n2)c2ccccc12 | 98 to 106 °C
29 | CNC(=S)N1CC(c2ccccc2)C(c2ccc(Cl)cc2)=N1 (configuration not stated) | 181 to 183 °C
30 | Nc1nc2c(c(Nc3cccc(F)c3)n1)-c1ccccc1C2 | 199 to 200 °C
31 | NCc1cc2cc(Cl)cc(-c3ccccc3)c2o1 | > 225 °C
32 | Cn1c([N+](=O)[O-])cnc1COc1ccc([N+](=O)[O-])cc1Cl | 138 °C
33 | N#CCCSCc1nccc(NC(=S)NCC(F)(F)F)n1 | 108 to 110 °C
34 | CN1CCC(Oc2ccc(Cl)cc2)(c2ccccc2)C(O)C1 (configuration not stated) | 164 to 165 °C
35 | Brc1cccc(-c2cn([C@H]3CN4CCC3CC4)nn2)c1 | 188 °C
36 | ClCc1ccc(OCCCCc2ccccc2)cc1 | 60 to 62 °C
37 | CC(C)CNC(=O)c1cc([N+](=O)[O-])cc([N+](=O)[O-])c1 | 149 to 155 °C
38 | CCOCc1nc2c(c(C)c(C)n3nnnc23)n1CCNC(=O)OC(C)(C)C | 197 to 199 °C
39 | O=C1NCCc2cc(Br)ccc21 | 137 to 139 °C
40 | CCCCN1CC(c2ccccc2)=C(O)C1=O | 137 to 139 °C

Row | Compound | melting point
41 | CC(=O)NC1CCc2c([nH]c3ccc(Br)cc23)C1 (configuration not stated) | 210 to 211 °C
42 | C=CCOc1ccccc1-c1nc2nc(SC)ncc2c(=O)[nH]1 | 205 to 206 °C
43 | C#CCOc1cc(Oc2ccccc2C)ncn1 | 64.8 °C
44 | Clc1ccc(C(=Cn2cnnn2)OCc2ccccc2)c(Cl)c1 | 92 °C
45 | CN1C(=O)C(c2cccc(Br)c2)(c2cnn(CC(F)(F)F)c2)N=C1N (configuration not stated) | 80 to 82 °C
46 | O=C(Oc1ccccc1N1c2ccccc2Sc2ccccc21)c1ccccc1 | 144 to 148 °C
47 | CN1CCC(N2C(=O)CN=C(c3ccccc3F)c3cc(Cl)ccc32)CC1 | 145 to 146 °C
48 | CCOP(=O)(COc1ccc(CO)cc1N)OCC | 181 to 184 °C
49 | CCOC(=O)N1CCN(CCNc2ncnc3c2sc2nc(N4CCCC4)c4c(c23)CC(C)(C)CC4)CC1 | 76.2 to 77.8 °C
50 | Cn1ccc(=O)c(OCc2ccccc2)c1C(O)c1ccccn1 (configuration not stated) | 202 to 204 °C
51 | CCCCC(=O)N(CCCCO)Cc1ccc(-c2ccccc2-c2nnn[nH]2)cc1 | 110 to 111 °C
52 | N=C1SCCN1c1ccccc1[N+](=O)[O-] | 127 °C
53 | CCOC1=NS(=O)C(C(N)=O)=C1Br (configuration not stated) | 168 to 172 °C
54 | C=CCOC1CCC2C3CCC4CC(=O)CCC4(C)C3CCC12C (configuration not stated) | 122 to 124 °C
55 | Cc1ccc(C(=O)c2noc(CS(=O)c3ccccc3)n2)cc1 (configuration not stated) | 97 to 99 °C
56 | CN1CCC(=C2c3ccccc3[C@@H](O)[C@@H](O)c3ccccc32)CC1 | 248 to 255 °C
57 | CC(C)(C)OC(=O)C1C(C=CC(=O)O)C1(C)C (configuration not stated) | 94 °C
58 | COc1ccc2c(c1)C(Cl)CC1C2C(O)CC2(C)C(O)CCC12 (configuration not stated) | 150 to 151 °C
59 | CCN(CC)C(=S)c1c(C)cccc1[Si](C)(C)C | 82 to 83 °C
60 | O=C1CCC2CCC(=O)N12 | 179 to 182 °C

Second part, the molecule after the results:

Row | melting point | Compound
61 | 195 to 201 °C | CSc1ncc2cc(Oc3ccc(F)cc3F)c(NC(=O)NC(C)(C)C)nc2n1
62 | 127 to 128 °C | COCCOC(=O)C1=C(C(F)F)NC(C)=C(C(=O)OC(C)C)C1c1cccc(Cl)c1Cl (configuration not stated)
63 | 123 °C | CCC(=O)c1ccc(COc2ccc(CO)c(CO)c2)s1
64 | 215 to 216 °C | CN(Cc1cc2c(-c3ccccc3)c(CC(=O)Nc3ccc(Cl)cc3C(F)(F)F)c(=O)oc2cc1Cl)C(=O)c1ccccc1
65 | 139 to 141 °C | CNC(=O)n1nc(Oc2ccc([N+](=O)[O-])c(C(F)(F)F)c2)cc1C
66 | 238 to 240 °C | CC(=O)Oc1nn(-c2ccc(C)cc2)c(=O)c2c1Nc1cc(Cl)ccc1C2
67 | 232 to 234 °C | COc1ccc(-c2coc(C(=O)O)cc2=O)cc1
68 | 84 to 86 °C | CCOC(=O)c1ccc(N(C(=O)OCC)C(=O)c2ccc(C(=O)C(C)(C)C)cc2)cc1
69 | 229 to 232 °C | COc1cc(CNc2nc(C)nc(C)c2Cl)ccc1Oc1ccc2ncc([N+](=O)[O-])n2n1
70 | 88 to 89 °C | CCOC(=O)C(=Cc1ccccc1)S(N)(=O)=O
71 | 230 °C | COc1ccc(S(=O)(=O)c2cc3c(cc2C)OC(C(=O)O)O3)cc1NC(C)=O (configuration not stated)
72 | 118 to 119 °C | CC(C)CC(C(=O)O)c1cc(Cl)c(-c2ccc(Cl)c(Cl)c2)c(OCC2CC2)c1 (configuration not stated)
73 | 89 to 95 °C | COc1ccccc1NC(=O)Nc1nc(NCc2cccs2)nc(N(CCC(=O)O)Cc2cccc(C)c2)n1
74 | 114 to 116 °C | CCC1C(=O)c2c(cc(OC)c(Cl)c2Cl)C1c1ccccc1 (configuration not stated)
75 | 157 °C | COC(=O)CCN1CCCC2(Cc3ccc(Br)cc3)C(=O)N(c3cc(Cl)nc(Cl)c3)C(=O)N12 (configuration not stated)
76 | 165 to 166 °C | CC(C)C(=O)O[C@H](C)[C@@H](C)OC(=O)[C@@H](N)Cc1ccc(O)c(O)c1
77 | 148 to 150 °C | COc1ccc(CN2C(=O)[C@@H](N3C(=O)c4ccccc4C3=O)[C@H]2CCc2ccccc2)c(OC)c1 (relative stereo)
78 | 144 to 146 °C | CCNC(=O)Nc1ccc(C(O)(C(F)(F)F)C(F)(F)F)cc1C(=O)OCC
79 | 201 to 203 °C | COc1ccc(-c2cc3ccccc3[nH]2)cc1NC(=S)Nc1ccc(C(=O)O)cc1
80 | 198 to 199 °C | Cc1oc(-c2ccc(F)cc2)cc1C(=O)Nc1cccc(CSCC(=O)O)c1
81 | 197 °C | COc1cc(N(Cc2cncs2)c2ccc(C(=O)O)cc2)ccc1C(N)=O

Row | melting point | Compound
82 | 224 to 226 °C | NS(=O)(=O)c1ccc(C2=NNC(C(=O)O)C2)cc1 (configuration not stated)
83 | 200 to 203 °C | CCCCNC(=O)NS(=O)(=O)c1cccc2c1OC(C)(C)C2
84 | 187 to 193 °C | CC(C)C(=O)NC[C@H]1CN(c2ccc3c(c2)CCCc2cnoc2-3)C(=O)O1
85 | 241 to 242 °C | O=C(O)c1cc(-n2c(-c3ccc([N+](=O)[O-])cc3)cc3c2CCCC3)ccc1O
86 | 103 to 110 °C | Cc1noc(NS(=O)(=O)c2ccccc2-c2ccc(-c3ncco3)cc2CC#N)c1C
87 | 200 to 201 °C | COc1nc2c(cc1NC(=S)N1CCN(c3cc(C)cc(C)c3)CC1)CCCC2
88 | 205 to 208 °C | CC1(CC(=O)Nc2ccccc2)OCCc2c1[nH]c1ccccc21 (configuration not stated)
89 | 174 to 176 °C | COc1ccc(C(=O)Nc2c(Cl)cc(CO)cc2Cl)cc1OC1CCCC1
90 | 142 to 143 °C | COc1cc(COc2nn(-c3ccccc3)cc2C=O)ccc1OCc1nc(-c2ccccc2)oc1C
91 | 156 to 157 °C | CCC(=O)N[C@@H](C)C(=O)N1CCC[C@H]1C(=O)Nc1ccccc1 (Propionyl-Ala-Pro-NHPh)
92 | 64 to 66 °C | CCc1ccc(NCc2cc(OC)c(OC)c(OC)c2)cc1
93 | 129 to 130 °C | Cc1cccc(-n2cc(CC(=O)O)c(-c3ccc(Cl)cc3)n2)c1
94 | 167 to 170 °C | CCOC(=O)CC(=O)CSc1nc2cc(Cl)c(F)cc2c(O)c1C(=O)OCC
95 | 114 to 116 °C | O=C(O)C1CCC(=O)N1Cc1cccc(F)c1 (configuration not stated)
96 | 115 to 116 °C | CCCCOC(=O)Nc1cccc(C(=O)C=CN(C)C)c1
97 | 225 to 227 °C | COc1cc(Cl)nc(NC(=O)NS(=O)(=O)c2ccccc2-c2nnnn2C)n1
98 | 233 °C | COc1cccc2sc(C(=O)Nc3nnn[nH]3)c(OC(C)C)c12
99 | 200 to 202 °C | CC(C)OC(=O)C=Cc1cc(N2C(=O)CC(C(F)(F)F)N(C)C2=O)ccc1Cl (configuration not stated)
100 | 137 to 139 °C | COc1ccc2c(C)c(CCCl)c(=O)oc2c1OC
101 | 98 to 99 °C | CCOC(=O)c1c(C(=O)c2nc(OC)cc(OC)n2)ccnc1Br
102 | 71 to 73 °C | CCCCCCCCCCCCc1ccc(NC(C)=O)c([N+](=O)[O-])c1
